Paper PMC12040169 (PLOS Biology, 2025)

Assay: in vitro
Conditions: human, hela cells, % viability

Compound Cc1ccc2nc(O)cc(C(=O)OCC(=O)c3cccc([N+](=O)[O-])c3)c2c1 [CBK265115] has a viability at 28.5 h, 10 µM of 94.1%.

With O=C(c1ccccc1F)N1CCCC(c2cc3ncccc3cn2)C1 (stereo not drawn) [CBK284710] the viability at 28.5 h, 10 µM was 83.3%.

With Nc1nc(=O)n([C@@H]2O[C@H](CO)[C@H](O)C2O)cc1CO (stereo partly drawn) [CBK201160] the viability at 28.5 h, 10 µM was 92.7%.

In the case of CCOC(=O)N1CCN(CC(=O)Nc2cc3c(cc2C(C)=O)OCO3)CC1 [CBK266163], the viability at 28.5 h, 10 µM is reported as 99.8%.

Work on COc1ccccc1C(=O)N1CCC(c2nc(C)n3ccccc23)C1 (stereo not drawn) [CBK282221] yielded a viability at 28.5 h, 10 µM of 88.4%.

With O=C(Nc1ccc(S(=O)(=O)Nc2ncccn2)cc1)c1ccc(Cl)c([N+](=O)[O-])c1 [CBK263739] the viability at 28.5 h, 10 µM was 101%.

Work on CC1(C)CC(CN)(c2ccccc2)CCO1 (stereo not drawn) [CBK025559C] yielded a viability at 28.5 h, 10 µM of 94.9%.

Work on NS(=O)(=O)c1ccccc1Sc1ccccc1 [CBK020524] yielded a viability at 28.5 h, 10 µM of 89%.

With Oc1cc(C(F)(F)F)nc(N2CCCC2)n1 [CBK002389] the viability at 28.5 h, 10 µM was 105%.

O=C(O)CCN1C(=O)c2ccc(Oc3ccc([N+](=O)[O-])cc3)cc2C1=O [CBK263357] showed a viability at 28.5 h, 10 µM of 96.2%.

Compound CNS(=O)(=O)c1cc(C(=O)O)ccc1OC [CBK270179] has a viability at 28.5 h, 10 µM of 104%.

O=C(c1ccno1)N1C[C@@H]2OCC(=O)N(CC3CC3)[C@@H]2C1 [CBK289680] gave a viability at 28.5 h, 10 µM of 83.5%.

Work on Cc1nn(C(C)CC(=O)NCCN2CCC(C)CC2)c(C)c1Cl (stereo not drawn) [CBK281558] yielded a viability at 28.5 h, 10 µM of 90.2%.

COCCNc1nc(-c2ccc3ccccc3c2)cn2ccnc12 [CBK066138] gave a viability at 28.5 h, 10 µM of 103%.

For CC(=O)N1CCc2sccc2C1c1ccc(NC(=O)c2ccccc2F)cc1 (stereo not drawn) [CBK286433], the viability at 28.5 h, 10 µM was 84.2%.

In the case of COc1cc(/C=N\NC(=O)CN2CCN(C)CC2)cc2c1OCO2 [CBK261503], the viability at 28.5 h, 10 µM is reported as 109%.

With O=C(NC1CCCCC1)O[C@@H]1CO[C@H]2[C@@H]1OC[C@@H]2NS(=O)(=O)Cc1ccccc1 [CBK289467] the viability at 28.5 h, 10 µM was 87.8%.

With COc1ccc(C)cc1S(=O)(=O)Nc1cc(Cl)ccc1C(=O)NCc1ccccc1 [CBK113954] the viability at 28.5 h, 10 µM was 85.5%.

CCN1CCN(C(=O)CN(CC)S(=O)(=O)c2ccc(Cl)cc2)CC1 [CBK268461] showed a viability at 28.5 h, 10 µM of 88.4%.

CC(C)(C)CNc1ccc(S(=O)(=O)N2CCOC2=O)cc1 [CBK028347] showed a viability at 28.5 h, 10 µM of 113%.

Compound COc1ccc(S(=O)(=O)NCCc2ccc(S(N)(=O)=O)cc2)cc1[N+](=O)[O-] [CBK267598] has a viability at 28.5 h, 10 µM of 94.1%.

Work on CC(=O)OC(COc1cccc(Cl)c1)Cn1cnc2cc(C)c(C)cc21 (stereo not drawn) [CBK266152] yielded a viability at 28.5 h, 10 µM of 86.6%.

CCC(CC)C(=O)N(C)c1c(C)nc2c(OCC(=O)c3ccc(F)cc3)cccn12 [CBK147239] showed a viability at 28.5 h, 10 µM of 113%.

c1ccc(COc2ccc(-n3cnnn3)cc2)nc1 [CBK288196] showed a viability at 28.5 h, 10 µM of 83.5%.

Work on COc1cc(OC)nc(CN2CCOC3(CCN(C(=O)OCc4ccccc4)CC3)C2)n1 [CBK161101T] yielded a viability at 28.5 h, 10 µM of 96.2%.

For COc1cc(SC)ccc1C(=O)N[C@H]1CCN2C(=O)[C@@H](CC(=O)O)NC(=O)[C@@H]2C1 [CBK289555], the viability at 28.5 h, 10 µM was 108%.

Compound CC(=O)CCCCC(=O)N1CCC2(CC1)CC(=O)c1cc(C)c(C)cc1O2 [CBK156497] has a viability at 28.5 h, 10 µM of 106%.

For OCCC1CNCCN1CC1CCCCC1 (stereo not drawn) [CBK270115], the viability at 28.5 h, 10 µM was 97.2%.

With CCCCc1ccc(S(=O)(=O)n2ccc3c(N4CCNCC4)cccc32)cc1 [CBK003744C] the viability at 28.5 h, 10 µM was 78.7%.

With CS(=O)(=O)Nc1ccc(C(=O)Nc2ccc(S(=O)(=O)Nc3nccs3)cc2)cc1 [CBK267856] the viability at 28.5 h, 10 µM was 97.3%.

Compound CCCCC1CCC(C(=O)Oc2ccccc2OCCO)CC1 (stereo not drawn) [CBK081498] has a viability at 28.5 h, 10 µM of 90.6%.

For Cc1noc(C)c1NC(=O)c1ccc2ccccc2n1 [CBK200309], the viability at 28.5 h, 10 µM was 101%.

Cc1cccc(CN2CCC(NC(=O)c3cccc4nn[nH]c34)CC2)c1 [CBK305411] gave a viability at 28.5 h, 10 µM of 92.1%.

O=C(CN1CCCCCC1)Nc1sc2c(c1C(=O)Nc1ccc(Br)cc1)CCC2 [CBK265076] gave a viability at 28.5 h, 10 µM of 109%.

O=C1NC(=O)C(CC(=O)N2CCC(Cn3cncn3)(C3CCCCC3)CC2)N1 (stereo not drawn) [CBK136808] gave a viability at 28.5 h, 10 µM of 94.3%.

COc1cccc(CC(=O)N2CCC(Cc3ccccc3-c3cccs3)(C(N)=O)CC2)c1 [CBK285908] gave a viability at 28.5 h, 10 µM of 112%.

Compound O=c1ccnc(SCc2cccc(Cl)c2)[nH]1 [CBK288123] has a viability at 28.5 h, 10 µM of 100%.

COc1ccc(CCNC(=O)C2CCCN(S(=O)(=O)c3ccc4ccccc4c3)C2)cc1 (stereo not drawn) [CBK269601] gave a viability at 28.5 h, 10 µM of 101%.

Cc1noc(C2(O)CCN(Cc3sccc3Cl)C2)n1 (stereo not drawn) [CBK304863] showed a viability at 28.5 h, 10 µM of 97.5%.

Cc1cc(NC(=O)c2cccc(N3C(=O)CCC3=O)c2)no1 [CBK287352] gave a viability at 28.5 h, 10 µM of 112%.

Cc1cc(NC(=O)CN2CCN(c3ccccc3)CC2)c2ccccc2n1 [CBK278322G] gave a viability at 28.5 h, 10 µM of 99.5%.

Work on O=c1[nH]c2ccccc2n1CCCN1CCC[C@@H]1CN1CCCC1 [CBK137111T] yielded a viability at 28.5 h, 10 µM of 93.5%.

With c1csc(C2NN=C3C4CCN(CC4)C32)c1 (stereo not drawn) [CBK021915] the viability at 28.5 h, 10 µM was 91.5%.

Work on Cc1cc(C)n(-c2ccc(C(=O)NCC3(C)COC3)cc2)n1 [CBK281756] yielded a viability at 28.5 h, 10 µM of 92.1%.

In the case of CCn1nc(C)c(C2NC(=O)c3ccccc3N2)c1C (stereo not drawn) [CBK288214], the viability at 28.5 h, 10 µM is reported as 88.6%.
